# Source: patent publication US12350252B2, “Water-soluble cannabinoid formulations and methods of their making” (SOLUSCIENCE, LLC, priority 2019, dated 2025)
# Experiment: Accelerated stability study of 2% CBD colloidal dispersion (cannabinoid profile, appearance, pH, microbial growth)
# Format: physicochemical
# Experimental: The solid dispersion included 20% CBD, 75% of Poloxamer 407 and 5% ascorbic acid was dissolved in distilled water to produce the homogenic, stable colloidal dispersion of cannabidiol at 2% (20 mg/mL) by weight of the formulation.
# [1] = Day # 0, content in colloidal dispersion of cannabidiol at 2% (20 mg/mL)
# [2] = Day # 90, stored at 100° F. (38° C.), content in colloidal dispersion of cannabidiol at 2%
SMILES,Cannabinoid profile Result [1],Cannabinoid profile Result (%) [1],Cannabinoid profile Result [2],Cannabinoid profile Result (%) [2]
"C=C(C)[C@@H]1CCC(C)=C[C@H]1c1c(O)cc(CCCCC)cc1O [Cannabidiol (CBD), Cannabidiol]",20.2 mg/g,2.02%,21.9 mg/g,2.19%
"CCCCCc1cc(O)c(C/C=C(\C)CCC=C(C)C)c(O)c1 [Cannabigerol (CBG), Cannabigerol]",0.3 mg/g,0.03%,,
"CCCCCc1cc(O)c2c(c1)OC(C)(C)c1ccc(C)cc1-2 [Cannabinol (CBN), Cannabinol]",0.3 mg/g,0.03%,,
